US9951064B2, “Azaindazole compounds as inhibitors of T790M containing EGFR mutants” (Genentech, Inc., priority 2013, dated 2018)

Legend:
EGFR del746-750 T790M = target: T1, EGFR del746-750 T790M (Homo sapiens, UniProt P00533, DEL746-750/T790M); assay: EGFR del746-750 T790M biochemical assay (Caliper mobility shift); details: 5 μM ATP; apparent Ki (Morrison fit) converted by Cheng-Prusoff, Km of ATP 2.1 μM; read-out: EGFR(T790M/d746-750) Ki
T1 construct: purchased Carna Biosciences 08-528
Procedure, shortened: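 Kinase reactions ran 30 min at room temperature (22 °C), then were stopped with 80 mM EDTA. Phosphorylated product and substrate were separated electrophoretically and quantified by Caliper mobility shift.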

[1] = tested on: H1975 (EGFR T790M/L858R) cell proliferation; assay: H1975 proliferation assay (Cell Titer-Glo); assay type: cell-based; details: Homo sapiens, NCI-H1975, 72 h, NCI-H1975 cells, 72 hour incubation, read-out: H1975 antiproliferative EC50
Procedure: H1975 Proliferation Assays
All cell culture reagents were purchased from Invitrogen/Gibco. Cells are cultured at 37° C. at 5% CO2 and split as recommended by ATCC.

[2] = target: T2, phosphor-EGFR in H1975(L585R/T790M) mutant EGFR expressing cells (Homo sapiens, UniProt P00533, L858R/T790M); assay: H1975 pEGFR MSD cellular assay; assay type: cell-based; details: NCI-H1975 cells, serum starved, 1 hour compound incubation, pEGFR Tyr1068 MSD; read-out: HI975 pEGFR EC50
T2 construct: host or cells: NCI-H1975
Procedure, shortened: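 NCI-H1975 cells, 30,000/well, serum-starved overnight, then treated 1 hour at 37° C with serially diluted compounds in serum-free medium (0.5% DMSO). Lysates captured on anti-phospho-EGFR plates overnight at 4° C, detected with SULFO-TAG anti-total EGFR by electrochemiluminescence. Inhibition vs untreated controls; EC50 from 4-parameter logistic fit.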

EGFR T790M L858R = target: T3, EGFR T790M L858R (Homo sapiens, UniProt P00533, L858R/T790M); assay: EGFR T790M L858R biochemical assay (Caliper mobility shift); details: 5 μM ATP; apparent Ki (Morrison fit) converted by Cheng-Prusoff, Km of ATP 1.3 μM
T3 construct: purchased Life Technologies PV4879
Procedure, shortened: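 Reactions run 30 minutes at room temperature (22 °C), stopped with 80 mM EDTA. Phosphorylated product and substrate separated electrophoretically and quantified by Caliper mobility shift.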

T2 sequence (P00533 25-1210 T790M/L858R): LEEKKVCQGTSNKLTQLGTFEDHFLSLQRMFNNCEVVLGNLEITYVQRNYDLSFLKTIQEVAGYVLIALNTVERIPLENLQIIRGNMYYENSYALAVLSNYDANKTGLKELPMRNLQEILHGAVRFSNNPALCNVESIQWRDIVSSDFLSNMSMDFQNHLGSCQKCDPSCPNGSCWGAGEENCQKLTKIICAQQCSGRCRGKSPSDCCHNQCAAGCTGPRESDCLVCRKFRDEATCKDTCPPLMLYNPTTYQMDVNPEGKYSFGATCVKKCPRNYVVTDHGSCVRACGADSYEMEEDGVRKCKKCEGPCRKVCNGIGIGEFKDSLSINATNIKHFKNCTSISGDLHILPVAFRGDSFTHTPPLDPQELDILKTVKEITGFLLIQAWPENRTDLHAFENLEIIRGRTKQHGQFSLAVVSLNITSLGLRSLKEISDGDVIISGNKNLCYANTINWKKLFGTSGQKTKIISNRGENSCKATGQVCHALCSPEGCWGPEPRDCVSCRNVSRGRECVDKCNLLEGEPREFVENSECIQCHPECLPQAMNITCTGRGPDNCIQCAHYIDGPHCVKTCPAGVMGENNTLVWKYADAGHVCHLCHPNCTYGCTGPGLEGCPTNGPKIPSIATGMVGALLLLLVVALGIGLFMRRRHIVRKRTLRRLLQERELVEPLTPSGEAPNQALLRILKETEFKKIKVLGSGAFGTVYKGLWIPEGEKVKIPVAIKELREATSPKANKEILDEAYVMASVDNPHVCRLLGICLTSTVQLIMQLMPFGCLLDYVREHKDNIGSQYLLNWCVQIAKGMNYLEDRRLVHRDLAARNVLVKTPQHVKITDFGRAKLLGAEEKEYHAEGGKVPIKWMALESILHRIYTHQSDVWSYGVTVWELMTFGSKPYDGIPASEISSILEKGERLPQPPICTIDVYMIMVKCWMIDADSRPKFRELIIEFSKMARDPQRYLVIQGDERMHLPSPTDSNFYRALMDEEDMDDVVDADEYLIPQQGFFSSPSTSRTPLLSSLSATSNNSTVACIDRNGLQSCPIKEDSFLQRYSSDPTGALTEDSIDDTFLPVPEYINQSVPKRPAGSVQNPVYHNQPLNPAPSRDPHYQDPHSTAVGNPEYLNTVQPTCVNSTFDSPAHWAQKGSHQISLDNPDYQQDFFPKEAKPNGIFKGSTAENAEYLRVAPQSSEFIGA
T3 sequence (P00533 25-1210 T790M/L858R): as above
T1 sequence (P00533 with tags, fused parts or gaps DEL746-750/T790M limits assumed): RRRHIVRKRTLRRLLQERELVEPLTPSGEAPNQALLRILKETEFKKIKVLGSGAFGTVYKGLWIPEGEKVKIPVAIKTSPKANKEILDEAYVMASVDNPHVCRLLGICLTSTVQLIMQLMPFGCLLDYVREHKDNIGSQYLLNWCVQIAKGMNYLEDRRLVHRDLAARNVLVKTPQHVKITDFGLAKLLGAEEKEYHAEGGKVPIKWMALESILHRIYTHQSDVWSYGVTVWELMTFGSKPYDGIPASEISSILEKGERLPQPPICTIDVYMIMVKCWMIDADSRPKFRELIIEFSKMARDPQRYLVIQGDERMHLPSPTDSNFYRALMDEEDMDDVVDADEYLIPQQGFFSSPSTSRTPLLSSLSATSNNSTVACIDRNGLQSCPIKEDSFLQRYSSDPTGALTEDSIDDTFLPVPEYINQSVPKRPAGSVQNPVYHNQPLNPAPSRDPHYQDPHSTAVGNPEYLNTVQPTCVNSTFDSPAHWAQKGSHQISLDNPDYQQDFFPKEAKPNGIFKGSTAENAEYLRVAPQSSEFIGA

Compound | Ki (EGFR del746-750 T790M) | EC50 [1] | EC50 [2] | Ki (EGFR T790M L858R)
CCC(C)n1nc(N2CCNC2=O)c2cnc(Nc3ccnc(-c4cnn(S(=O)(=O)C5CC5)c4)n3)cc21 (stereo not drawn) [Example 25, 1-(1-(sec-Butyl)-6-((2-(1-(cyclopropylsulfonyl)-1H-pyrazol-4-yl)pyrimidin-4-yl)amino)-1H-pyrazolo[4,3-c]pyridin-3-yl)imidazolidin-2-one] | 2.5 nM | 138 nM | 38.3 nM | 1 nM
CC(C)n1nc(NC2COC2)c2cnc(Nc3ccnc(-c4cnn(S(=O)(=O)C5CC5)c4)n3)cc21 [Example 35, N^6-(2-(1-(cyclopropylsulfonyl)-1H-pyrazol-4-yl)pyrimidin-4-yl)-1-isopropyl-N^3-(oxetan-3-yl)-1H-pyrazolo[4,3-c]pyridine-3,6-diamine] | 0.5 nM | 167 nM | 33.5 nM | 0.7 nM
CC(C)n1nc(N2CC(O)C2)c2cnc(Nc3ccnc(-c4cnn(S(=O)(=O)C5CC5)c4)n3)cc21 [Example 37, 1-(6-(2-(1-(cyclopropylsulfonyl)-1H-pyrazol-4-yl)pyrimidin-4-ylamino)-1-isopropyl-1H-pyrazolo[4,3-c]pyridin-3-yl)azetidin-3-ol] | 0.8 nM | 1120 nM | 91.7 nM | 1.4 nM
CCS(=O)(=O)n1cc(-c2nccc(Nc3cc4c(cn3)c(NC3CCOC3)nn4C(C)C)n2)cn1 (stereo not drawn) [Example 38, N6-(2-(1-(ethylsulfonyl)-1H-pyrazol-4-yl)pyrimidin-4-yl)-1-isopropyl-N3-(tetrahydrofuran-3-yl)-1H-pyrazolo[4,3-c]pyridine-3,6-diamine] | 2.4 nM | 272 nM | 40.8 nM | 1.1 nM
CC(C)n1nc(N2CCOC(CO)C2)c2cnc(Nc3ccnc(-c4cnn(S(=O)(=O)C5CC5)c4)n3)cc21 (stereo not drawn) [Example 53, (4-(6-(2-(1-(cyclopropylsulfonyl)-1H-pyrazol-4-yl)pyrimidin-4-ylamino)-1-isopropyl-1H-pyrazolo[4,3-c]pyridin-3-yl)morpholin-2-yl)methanol] | 0.9 nM | 241 nM | 53.6 nM | 1.2 nM
CC(C)n1nc(N2CCC2)c2cnc(Nc3ccnc(-c4cnn(S(=O)(=O)C5CC5)c4)n3)cc21 [Example 54, 3-(azetidin-1-yl)-N-(2-(1-(cyclopropylsulfonyl)-1H-pyrazol-4-yl)pyrimidin-4-yl)-1-isopropyl-1H-pyrazolo[4,3-c]pyridin-6-amine] | 0.5 nM | 158 nM | 17.9 nM | 0.7 nM
CC(C)n1nc(N2CCNC(=O)C2)c2cnc(Nc3ccnc(-c4cnn(S(=O)(=O)C5CC5)c4)n3)cc21 [Example 59, 4-(6-(2-(1-(cyclopropylsulfonyl)-1H-pyrazol-4-yl)pyrimidin-4-ylamino)-1-isopropyl-1H-pyrazolo[4,3-c]pyridin-3-yl)piperazin-2-one] | 0.5 nM | 738 nM | 92.1 nM | < 0.6 nM
CC(C)n1nc(N2CC(CO)C2)c2cnc(Nc3ccnc(-c4cnn(S(=O)(=O)C5CC5)c4)n3)cc21 [Example 63, (1-(6-(2-(1-(cyclopropylsulfonyl)-1H-pyrazol-4-yl)pyrimidin-4-ylamino)-1-isopropyl-1H-pyrazolo[4,3-c]pyridin-3-yl)azetidin-3-yl)methanol] | 0.5 nM | 271 nM | 18.5 nM | < 0.6 nM
CC[C@H](C)n1nc(N2CC3(COC3)C2)c2cnc(Nc3ccnc(OCC(C)(C)S(C)(=O)=O)n3)cc21 [Example 71, [1-((S)-sec-Butyl)-3-(2-oxa-6-azaspiro[3.3]hept-6-yl)-1H-pyrazolo[4,3-c]pyridin-6-yl]-[2-(2-methanesulfonyl-2-methylpropoxy)pyrimidin-4-yl]amine] | 13.2 nM | 785 nM | 256 nM | 4.7 nM
CC(C)n1nc(N2CCOC2=O)c2cnc(Nc3ccnc(-c4cnn(S(=O)(=O)C5CC5)c4)n3)cc21 [Example 72, 3-(6-(2-(1-(Cyclopropylsulfonyl)-1H-pyrazol-4-yl)pyrimidin-4-ylamino)-1-isopropyl-1H-pyrazolo[4,3-c]pyridin-3-yl)oxazolidin-2-one] | 0.5 nM | 206 nM | 28.1 nM | 0.7 nM
CC(C)n1nc(N2CC3CCC(C2)O3)c2cnc(Nc3ccnc(-c4cnn(S(=O)(=O)C5CC5)c4)n3)cc21 [Example 73, 3-(8-Oxa-3-azabicyclo[3.2.1]octan-3-yl)-N-(2-(1-(cyclopropylsulfonyl)-1H-pyrazol-4-yl)pyrimidin-4-yl)-1-isopropyl-1H-pyrazolo[4,3-c]pyridin-6-amine] | 3.1 nM | 1210 nM | 124 nM | 3.3 nM
CC(C)n1nc(NC(C)(C)C)c2cnc(Nc3ccnc(-c4cnn(S(=O)(=O)C5CC5)c4)n3)cc21 [Example 74, N^3-tert-Butyl-N^6-(2-(1-(cyclopropylsulfonyl)-1H-pyrazol-4-yl)pyrimidin-4-yl)-1-isopropyl-1H-pyrazolo[4,3-c]pyridine-3,6-diamine] | 106 nM | 4620 nM | 9260 nM | 129 nM
CC(C)n1nc(N2CCN(C)C2=O)c2cnc(Nc3ccnc(N4CCC(O)C(F)C4)n3)cc21 (stereo not drawn) [Example 76, 1-(6-(2-(cis-3-Fluoro-4-hydroxypiperidin-1-yl)pyrimidin-4-ylamino)-1-isopropyl-1H-pyrazolo[4,3-c]pyridin-3-yl)-3-methylimidazolidin-2-one] | 13.8 nM | 1180 nM | 752 nM | 5.1 nM
CC(C)n1nc(N2CC(C)(O)C2)c2cnc(Nc3ccnc(-c4cnn(S(=O)(=O)C5CC5)c4)n3)cc21 [Example 82, 1-(6-(2-(1-(Cyclopropylsulfonyl)-1H-pyrazol-4-yl)pyrimidin-4-ylamino)-1-isopropyl-1H-pyrazolo[4,3-c]pyridin-3-yl)-3-methylazetidin-3-ol] | 1.2 nM | 289 nM | 108 nM | 1.4 nM
CC(C)n1nc(N2CCN(C)C2=O)c2cnc(Nc3ccnc(-c4cnn(S(=O)(=O)C5CC5)c4)n3)cc21 [Example 83, 1-(6-(2-(1-(Cyclopropylsulfonyl)-1H-pyrazol-4-yl)pyrimidin-4-ylamino)-1-isopropyl-1H-pyrazolo[4,3-c]pyridin-3-yl)-3-methylimidazolidin-2-one] | 1.2 nM | > 10000 nM | 21.6 nM | 1.3 nM
CC(C)n1nc(N2CC(C(C)(C)C(N)=O)C2)c2cnc(Nc3ccnc(N4CCC(C)(O)CC4)n3)cc21 [Example 84, 2-(1-(6-(2-(4-Hydroxy-4-methylpiperidin-1-yl)pyrimidin-4-ylamino)-1-isopropyl-1H-pyrazolo[4,3-c]pyridin-3-yl)azetidin-3-yl)-2-methylpropanamide] | 20.5 nM | > 10000 nM | 2140 nM | 6.7 nM
CC(C)n1nc(N2CC(O)C(F)(F)C2)c2cnc(Nc3ccnc(N4CCC(C)(O)CC4)n3)cc21 (stereo not drawn) [Example 85, 1-(4-(3-(3,3-Difluoro-4-hydroxypyrrolidin-1-yl)-1-isopropyl-1H-pyrazolo[4,3-c]pyridin-6-ylamino)pyrimidin-2-yl)-4-methylpiperidin-4-ol] | 15.5 nM | 1330 nM | 308 nM | 5.5 nM
CC(C)n1nc(N2CC(N)CC2=O)c2cnc(Nc3ccnc(N4CCC(C)(O)CC4)n3)cc21 (stereo not drawn) [Example 86, 4-Amino-1-(6-(2-(4-hydroxy-4-methylpiperidin-1-yl)pyrimidin-4-ylamino)-1-isopropyl-1H-pyrazolo[4,3-c]pyridin-3-yl)pyrrolidin-2-one] | 29.1 nM | > 10000 nM | 1940 nM | 13.3 nM
CC(n1nc(N2CC3(COC3)C2)c2cnc(Nc3ccnc(N4CCC(C)(O)CC4)n3)cc21)C(F)(F)F (stereo not drawn) [Example 87, 4-Methyl-1-[4-[(3-[2-oxa-6-azaspiro[3.3]heptan-6-yl]-1-(1,1,1-trifluoropropan-2-yl)-1H-pyrazolo[4,3-c]pyridin-6-yl)amino]pyrimidin-2-yl]piperidin-4-ol] | 11.4 nM | 3290 nM | 472 nM | 6.4 nM
CCC(C)n1nc(N2CCS(=N)(=O)CC2)c2cnc(Nc3ccnc(N4CCC(C)(O)CC4)n3)cc21 (stereo not drawn) [Example 89, 4-[1-(sec-Butyl)-6-[[2-(4-hydroxy-4-methylpiperidin-1-yl)pyrimidin-4-yl]amino]-1H-pyrazolo[4,3-c]pyridin-3-yl]-1-imino-4-thiomorpholin-1-one] | 46.9 nM | 9980 nM | 5260 nM | 26.5 nM
CCC(C)n1nc(N2CCNC(=O)C2)c2cnc(Nc3ccnc(N4CCC(C)(O)CC4)n3)cc21 (stereo not drawn) [Example 92, 4-(1-sec-Butyl-6-(2-(4-hydroxy-4-methylpiperidin-1-yl)pyrimidin-4-ylamino)-1H-pyrazolo[4,3-c]pyridin-3-yl)piperazin-2-one] | 9.5 nM | 1760 nM | 788 nM | 3.8 nM
